Values of other authors, collected in patent publication EP2428201A1, “Oral administration of nucleoside monophosphates” (Merck Serono S.A., priority 2010, dated 2012).

Conditions: administered orally, compared to the drug given by injection

Nc1nc(Cl)nc2c1ncn2[C@H]1C[C@H](O)[C@@H](CO)O1 [cladribine, 2-chloro-2'-deoxyadenosine]
bioavailability: reduced bioavailability
